In the NIST ThermoML archive (doi:10.1021/acs.jced.8b00202):
“And” between values parts separate entries of the source, which are not always exact repeats. Equal values may be shown once.

Details: Frequency=8 MHz, Dual path-length method

CC(C)C [2-methylpropane]
Details	speed of sound
300 K, 50138 kPa, Liquid	1240.1 m/s
300 K, 60144 kPa, Liquid	1297.7 m/s
300 K, 70151 kPa, Liquid	1350.8 m/s
300 K, 80158 kPa, Liquid	1400.3 m/s
300 K, 90165 kPa, Liquid	1446.7 m/s
300 K, 100172 kPa, Liquid	1490.4 m/s
300.01 K, 2103.9 kPa, Liquid	831.02 m/s
319.99 K, 40132 kPa, Liquid	1106.5 m/s
319.99 K, 45135 kPa, Liquid	1140.9 m/s
320 K, 1103.3 kPa, Liquid	702.16 m/s
320 K, 1103.7 kPa, Liquid	702.18 m/s
320 K, 1105.9 kPa, Liquid	702.16 m/s
320 K, 2106.5 kPa, Liquid	719.58 m/s
320 K, 3107.1 kPa, Liquid	736.11 m/s
320 K, 5106.2 kPa, Liquid	766.91 m/s
320 K, 5106.5 kPa, Liquid	766.92 m/s
320 K, 5108.3 kPa, Liquid	766.9 m/s
320 K, 6108.3 kPa, Liquid	781.34 m/s
320 K, 7109 kPa, Liquid	795.23 m/s
320 K, 8109.8 kPa, Liquid	808.64 m/s
320 K, 9110.4 kPa, Liquid	821.6 m/s
320 K, 10109 kPa, Liquid	834.15 m/s
320 K, 10110 kPa, Liquid	834.16 m/s and 834.15 m/s
320 K, 15114 kPa, Liquid	891.73 m/s
320 K, 17616 kPa, Liquid	917.89 m/s
320 K, 20118 kPa, Liquid	942.65 m/s
320 K, 25121 kPa, Liquid	988.67 m/s
320 K, 30123 kPa, Liquid	1030.8 m/s
320 K, 30124 kPa, Liquid	1030.9 m/s
320 K, 35128 kPa, Liquid	1070 m/s
320 K, 50136 kPa, Liquid	1173.5 m/s
320 K, 50139 kPa, Liquid	1173.5 m/s
320 K, 60146 kPa, Liquid	1234 m/s
320 K, 70153 kPa, Liquid	1289.5 m/s
320 K, 80160 kPa, Liquid	1340.8 m/s
320 K, 90167 kPa, Liquid	1388.9 m/s
320 K, 100174 kPa, Liquid	1434 m/s
320.01 K, 12612 kPa, Liquid	863.87 m/s
340 K, 2104 kPa, Liquid	604.55 m/s
340 K, 2104.2 kPa, Liquid	604.63 m/s
340 K, 3104.8 kPa, Liquid	625.77 m/s
340 K, 4105.5 kPa, Liquid	645.52 m/s
340 K, 5106 kPa, Liquid	664.1 m/s
340 K, 5106.2 kPa, Liquid	664.04 m/s
340 K, 6106.7 kPa, Liquid	681.52 m/s
340 K, 7107.5 kPa, Liquid	698.12 m/s
340 K, 8108.3 kPa, Liquid	713.94 m/s
340 K, 9109.1 kPa, Liquid	729.07 m/s
340 K, 10109 kPa, Liquid	743.63 m/s
340 K, 10110 kPa, Liquid	743.59 m/s
340 K, 12612 kPa, Liquid	777.6 m/s
340 K, 15113 kPa, Liquid	808.91 m/s
340 K, 17616 kPa, Liquid	838.02 m/s
340 K, 20118 kPa, Liquid	865.3 m/s
340 K, 25121 kPa, Liquid	915.43 m/s
340 K, 30123 kPa, Liquid	960.88 m/s
340 K, 30125 kPa, Liquid	960.87 m/s
340 K, 35128 kPa, Liquid	1002.6 m/s
340 K, 40130 kPa, Liquid	1041.4 m/s
340 K, 40132 kPa, Liquid	1041.4 m/s
340 K, 45135 kPa, Liquid	1077.7 m/s
340 K, 50140 kPa, Liquid	1112 m/s
340 K, 60147 kPa, Liquid	1175.2 m/s
340 K, 70154 kPa, Liquid	1232.9 m/s
340 K, 80159 kPa, Liquid	1286 m/s
340 K, 90166 kPa, Liquid	1335.6 m/s
340 K, 100173 kPa, Liquid	1382.1 m/s
360 K, 2104.4 kPa, Liquid	480.04 m/s
360 K, 3105.2 kPa, Liquid	509.76 m/s
360 K, 4105.9 kPa, Liquid	536.09 m/s
360 K, 5104.5 kPa, Liquid	559.92 m/s
360 K, 5104.9 kPa, Liquid	559.91 m/s
360 K, 6107.2 kPa, Liquid	581.76 m/s
360 K, 7108 kPa, Liquid	602.06 m/s
360 K, 8109.7 kPa, Liquid	621.09 m/s
360 K, 9110.4 kPa, Liquid	639 m/s
360 K, 10108 kPa, Liquid	655.98 m/s
360 K, 10111 kPa, Liquid	655.99 m/s
360 K, 12613 kPa, Liquid	695.08 m/s
360 K, 15114 kPa, Liquid	730.38 m/s
360 K, 17616 kPa, Liquid	762.73 m/s
360 K, 20118 kPa, Liquid	792.71 m/s
360 K, 25121 kPa, Liquid	847.15 m/s
360 K, 30125 kPa, Liquid	895.9 m/s
360 K, 35128 kPa, Liquid	940.3 m/s
360 K, 40132 kPa, Liquid	981.26 m/s
360 K, 45135 kPa, Liquid	1019.4 m/s
360 K, 50136 kPa, Liquid	1055.2 m/s
360 K, 50137 kPa, Liquid	1055.2 m/s
360 K, 50138 kPa, Liquid	1055.2 m/s
360 K, 60146 kPa, Liquid	1121 m/s
360 K, 70152 kPa, Liquid	1180.7 m/s
360 K, 80159 kPa, Liquid	1235.6 m/s
360 K, 90166 kPa, Liquid	1286.5 m/s
360 K, 100173 kPa, Liquid	1334.2 m/s
380 K, 3104.5 kPa, Liquid	378.47 m/s
380 K, 3604.1 kPa, Liquid	399.56 m/s
380 K, 4105.2 kPa, Liquid	418.49 m/s
380 K, 5105.8 kPa, Liquid	451.63 m/s
380 K, 6106.5 kPa, Liquid	480.42 m/s
380 K, 7107.2 kPa, Liquid	506.13 m/s
380 K, 8107.8 kPa, Liquid	529.51 m/s
380 K, 8109.6 kPa, Liquid	529.52 m/s
380 K, 9107.5 kPa, Liquid	551.1 m/s
380 K, 9107.9 kPa, Liquid	551.06 m/s
380 K, 10108 kPa, Liquid	571.15 m/s
380 K, 10111 kPa, Liquid	571.16 m/s
380 K, 12610 kPa, Liquid	616.32 m/s
380 K, 15112 kPa, Liquid	656.14 m/s
380 K, 15114 kPa, Liquid	656.15 m/s
380 K, 17614 kPa, Liquid	692.04 m/s
380 K, 20115 kPa, Liquid	724.92 m/s
380 K, 20116 kPa, Liquid	724.9 m/s
380 K, 25120 kPa, Liquid	783.75 m/s
380 K, 25121 kPa, Liquid	783.75 m/s
380 K, 30123 kPa, Liquid	835.78 m/s
380 K, 35127 kPa, Liquid	882.76 m/s
380 K, 40130 kPa, Liquid	925.81 m/s
380 K, 45134 kPa, Liquid	965.68 m/s
380 K, 50137 kPa, Liquid	1003 m/s
380 K, 60144 kPa, Liquid	1071.2 m/s
380 K, 70152 kPa, Liquid	1132.8 m/s
380 K, 80160 kPa, Liquid	1189.2 m/s
380 K, 90167 kPa, Liquid	1241.4 m/s
380 K, 100174 kPa, Liquid	1290.2 m/s
380.01 K, 20115 kPa, Liquid	724.92 m/s
380.01 K, 50136 kPa, Liquid	1002.9 m/s
400 K, 4606.1 kPa, Liquid	309.14 m/s
400 K, 5106.4 kPa, Liquid	334.25 m/s
400 K, 6107.2 kPa, Liquid	375.6 m/s
400 K, 7108.1 kPa, Liquid	409.76 m/s
400 K, 8108.8 kPa, Liquid	439.33 m/s
400 K, 8109.3 kPa, Liquid	439.33 m/s
400 K, 9109.5 kPa, Liquid	465.69 m/s
400 K, 10110 kPa, Liquid	489.63 m/s
400 K, 10111 kPa, Liquid	489.63 m/s
400 K, 12612 kPa, Liquid	541.93 m/s
400 K, 15114 kPa, Liquid	586.71 m/s and 586.72 m/s
400 K, 17616 kPa, Liquid	626.34 m/s
400 K, 20117 kPa, Liquid	662.12 m/s
400 K, 25122 kPa, Liquid	725.35 m/s
400 K, 30126 kPa, Liquid	780.54 m/s
400 K, 35129 kPa, Liquid	829.95 m/s
400 K, 40132 kPa, Liquid	874.94 m/s
400 K, 45136 kPa, Liquid	916.42 m/s
400 K, 50139 kPa, Liquid	955.05 m/s
400 K, 60146 kPa, Liquid	1025.5 m/s
400 K, 70153 kPa, Liquid	1088.7 m/s
400 K, 80160 kPa, Liquid	1146.5 m/s
400 K, 90167 kPa, Liquid	1199.9 m/s
400 K, 100174 kPa, Liquid	1249.7 m/s
420 K, 6107.4 kPa, Gas	266.66 m/s
420 K, 7108.4 kPa, Gas	314.01 m/s
420 K, 8109.2 kPa, Gas	351.95 m/s
420 K, 9110 kPa, Gas	384.27 m/s
420 K, 10111 kPa, Gas	412.72 m/s
420 K, 12613 kPa, Gas	472.84 m/s
420 K, 15115 kPa, Gas	522.73 m/s
420 K, 17617 kPa, Gas	566.03 m/s
420 K, 20119 kPa, Gas	604.64 m/s
420 K, 25122 kPa, Gas	671.99 m/s
420 K, 30126 kPa, Gas	730.1 m/s
420 K, 35129 kPa, Gas	781.73 m/s
420 K, 40133 kPa, Gas	828.47 m/s
420 K, 45136 kPa, Gas	871.4 m/s
420 K, 50140 kPa, Gas	911.24 m/s
420 K, 60146 kPa, Gas	983.6 m/s
420 K, 70153 kPa, Gas	1048.4 m/s
420 K, 80160 kPa, Gas	1107.4 m/s
420 K, 90167 kPa, Gas	1161.8 m/s
420 K, 100174 kPa, Gas	1212.4 m/s
